This note sets out measurements from patent publication US20240148701A1, “WOULD HEALING METHODS” (The University of Sydney, priority 2021, published 2024).

What all share (format): in vivo, mouse
The subject of experiment [1] is eNOS. The experiment can be described thus: NOS activity by radioimmunoassay in hind limb tissue. The conditions noted are these: ischemic and non-ischemic limbs, 14 days post-surgery. The method, then:
(§1) Hind limb tissue including the gastrocnemius and adductor muscles were isolated and collected at 14 or 28 days. Tissues were separated and implanted in OCT or placed in cryovials and snap-frozen in liquid nitrogen or were fixed in 10% formalin for 24-hours and then moved to 70% ethanol for storage.
The activity of NOS was measured using radioimmunoassay according to manufacturer's instructions (Cayman Chemical, USA). Samples were prepared in triplicate and detected using a liquid scintillation counter (5 min detection, Tri-Carb 4910TR 100V, Perkin Elmer, USA). All samples were also assayed in the presence of L-NAME and this was subtracted from the baseline to give a readout of NOS activity.

Another experiment concerns CD31. The experiment can be described thus: CD31 histological analysis of hind limbs post-ischemia. The conditions noted are these: both type 1 diabetes and non-diabetic mice. How it is done:
Formalin fixed paraffin-embedded gastrocnemius was cut into 4 μm sections and then sections were deparaffinized. Heat retrieval was performed with Tris-EDTA buffer at pH 9. Slides were incubated overnight with a rabbit polyclonal CD31 antibody (dilution 1:200, Abcam Ltd, Australia) followed by horseradish peroxidase anti-rabbit Envision system (Dako Cytochemistry, Tokyo, Japan). Staining was developed with 3.3 diaminobenzidine tetrahydrochloride (Dako Cytochemistry, Tokyo, Japan) and counterstained with Mayer's hematoxylin stain. Rabbit IgG negative controls (Dako Cytochemistry, Tokyo, Japan) were used. A total of ten non-overlapping images for each gastrocnemius were taken with a light microscope (Leica, DM750 linked to an ICC50 E camera module). Images were taken at ×40 and analyzed with National Institute of Health Image J 1.51j8 software.

Experiment [2] has as its system eNOS. The experiment can be described thus: Immunoblot of eNOS expression and serine 1177 phosphorylation in ischemic hind limb. As to conditions: ischemic hindlimb, type 1 diabetes model. The method, then:
Gastrocnemius samples were stored at −80° C. and then mechanically homogenized in ice-cold lysis buffer containing 150 mmol/L NaCl, 200 mmol/L Tris-HCl (pH 8.0), 1% Triton X-100, 0.5% deoxycholic acid, 0.1% SDS, N-ethylmaleimide (25 mM) and protease inhibitors (cOmplete™ EDTA-free, Roche Diagnostics). 30 μg of protein lysate was denatured and run under reducing conditions on SDS-PAGE (Bolt™ pre-cast gels and reagents, Thermofisher Scientific, Australia) and transferred onto Immobilon polyvinylidene fluoride membrane (Merck Millipore, Australia). Membranes were incubated in primary antibodies directed at determining protein expression of the following: Nox isoforms (anti-Nox 2, 1:5000; Abcam, Australia; anti-Nox-4, 1:5000; Abcam, Australia); reactive nitrogen species (anti-nitrotyrosine, 1:1000; Abcam, Australia); and both expression and phosphorylation of eNOS (anti Phospho eNOS serine 1177, 1:1000, Cell Signaling Technology, USA; anti-eNOS 1:1000, BD Biosciences, USA) and Akt (anti Phospho Akt 1:1000, Akt 1:1000, Cell Signaling Technology, USA). Specific secondary antibodies recognizing rabbit or mouse primary antibodies were used (IRDye®, Licor; 1:20,000, USA). Membranes were detected using an Odyssey imaging platform (Licor, USA).

Experiment [3] concerns eNOS. In words: eNOS immunoprecipitation, glutathionylation of eNOS in ischemic hind limb. As to conditions: ischemic limbs of type 1 diabetes mice. The method, then: Gastronemius protein (500 μg) extracted as above was used for co-immunoprecipitation with eNOS. Protein G dynabeads (1.5 mg/ml, 2.8 μm beads, Thermofisher Scientific, Australia) were covalently conjugated with mouse anti-eNOS antibody (BD Biosciences, 1 μg) using bis(sulfosuccinimidyl) suberate amine-amine cross-linking solution (5 mM; ThermoFisher Scientific, Australia). Beads were washed with PBS and incubated with protein lysate overnight at 4° C. IgG controls were prepared using anti-IgG antibodies conjugated to dynabeads using an identical process. Protein was eluted from beads using LDS buffer, denatured and run in non-reduced conditions on 8% Bis-Tris gels using SDS-PAGE and transferred onto polyvinylidene fluoride membrane as above. Expression of oxidized glutathione was detected using mouse anti-glutathione antibody (Virogen, 1:1000). eNOS was detected using rabbit anti-eNOS (Cell Signaling Technology, 1:1000, Australia). Odyssey detection system was used to visualize bands as above.

The test system of another experiment is Nox 4. In words: Immunoblot of hind limb Nox 4 expression. How it is done:
as §1
Gastrocnemius samples were stored at −80° C. and then mechanically homogenized in ice-cold lysis buffer containing 150 mmol/L NaCl, 200 mmol/L Tris-HCl (pH 8.0), 1% Triton X-100, 0.5% deoxycholic acid, 0.1% SDS, N-ethylmaleimide (25 mM) and protease inhibitors (cOmplete™ EDTA-free, Roche Diagnostics). 30 μg of protein lysate was denatured and run under reducing conditions on SDS-PAGE (Bolt™ pre-cast gels and reagents, Thermofisher Scientific, Australia) and transferred onto Immobilon polyvinylidene fluoride membrane (Merck Millipore, Australia). […] Membranes were detected using an Odyssey imaging platform (Licor, USA).

Experiment [4] deals with C57BL6/J mice. In words: Murine hind limb ischemia model, laser Doppler perfusion (non-diabetic mice). How it is done: (§2) Male C57BL6/J mice 8-10 weeks of age were obtained from Australian BioResources (Moss Vale, NSW) with 12 hour light/dark cycles and free access to water and mouse chow (Specialty Feeds, Australia). Mice were housed in groups of 2-5 in standard cages within a Physical Containment Level 2 laboratory. For in vivo angiogenesis 16 mice underwent the femoral vascular ligation model. Mice were anaesthetized with 1.5-2% isoflurane vaporized in oxygen and constant body temperature was maintained. All mice received pre-operative and 24-hour post-operative analgesia (carprofen, 5 mg/kg s.c). A small incision (˜15 mm) was made in the hind limb skin directly over the femoral vasculature. A portion of the femoral artery and vein, distal to the origin of the profunda femoris artery and proximal to the saphenous artery, were isolated and two ligations were performed using 6-0 silk sutures. The femoral artery and vein were then excised between the ligation sites 27. An osmotic mini-pump (model 1002 [for 14 day protocols] or model 1004 [for 28 day protocols], Alzet, USA) containing either CL 316,243 (1 mg/kg/day) or vehicle (normal saline) was then implanted via the femoral skin opening and tunneled around and positioned in the dorsal flank. The mice were randomized 1:1 to treatment protocols prior to undergoing surgery. The skin was closed with non-continuous suture (Prolene 6-0, Johnson and Johnson Medical, Australia). Hind limb blood flow was assessed prior to ligation (baseline) and immediately after undergoing hind limb ischemia, with subsequent imaging at day 3, 7, 10, 14, 21 and 28 post hind limb ischemia. Some experiments were stopped at 14 days for assessment of hind limb histology and biochemistry. Software was used to analyze the perfusion flux (Moor, UK) and investigators were blinded to the treatment groups during the period of analysis. The rate of reperfusion in the hind limb was calculated as a ratio of blood flow in the ischemic versus non-ischemic contralateral limb.

Experiment [5] deals with C57BL6/J mice. In words: Hind limb ischemia in type 1 diabetes model, laser Doppler perfusion. How it is done:
as §2, with “An osmotic mini-pump (model 1002 [for 14 day protocols] or model 1004 [for 28 day protocols], Alzet, USA) containing either CL 316,243 (1 mg/kg/day) or vehicle (normal saline) was then implanted via the femoral skin opening and tunneled around and positioned in the dorsal flank. The mice were randomized 1:1 to treatment protocols prior to undergoing surgery. The skin was closed with non-continuous suture (Prolene 6-0, Johnson and Johnson Medical, Australia).” left out, “Some experiments were stopped at 14 days for assessment of hind limb histology and biochemistry. Software was used to analyze the perfusion flux (Moor, UK) and investigators were blinded to the treatment groups during the period of analysis.” left out, “limb. […]” for “limb.”

As for `C[C@H](Cc1ccc2c(c1)OC(C(=O)[O-])(C(=O)[O-])O2)NC[C@H](O)c1cccc(Cl)c1.[Na+].[Na+]` [CL 316,243], the eNOS activity result in the experiment on eNOS [1] is listed as “enhanced eNOS activity”. For the same compound, the “CD31+ staining in ischemic hindlimbs (vascularization)” value in the experiment on CD31 is “greater CD31+ staining”. In the experiment with eNOS [2], the eNOS expression result is reported as “unaltered” and the “phosphorylation of eNOS at serine 1177” value is “did not appear to be affected”. In addition, the “glutathionylation of eNOS” value with eNOS [3] is “largely abolished”. The “Nox 4 hind limb protein expression” value with Nox 4 (ischemic limb, non-diabetic mice, n=4, P>0.05) stood at 0.88±0.28 fold change from vehicle. Besides, the “diabetes-induced elevation in Nox4 expression” value with Nox 4 (type 1 diabetic mice, ischemic and non-ischemic limb, back to control levels) is “markedly reduced”. The “perfusion in the ischemic limbs” value in the experiment with C57BL6/J mice [4] (1 mg/kg/day subcutaneous infusion, 10-14 days following ischemic injury, vs vehicle) is recorded as “significantly increased perfusion”. The “perfusion in the non-ischemic limb” value in the experiment on C57BL6/J mice [4] (1 mg/kg/day systemic infusion) is on record as “increased perfusion”. For the same compound, the “ischemic non-ischemic ratio of perfusion” value with C57BL6/J mice [4] (14 days of hind limb ischemia, vs vehicle) is reported as “no differences”. Further, the perfusion ratio result with C57BL6/J mice [5] (citrate-buffer treated (non-diabetic) mice, also 14-28 days post-ischemia) is on record as “not different from vehicle controls”. For the same compound, the “greater ischemic-non-ischemic ratio (reperfusion)” value in the experiment on C57BL6/J mice [5] (type 1 diabetes mice, from 14 days onwards, 1 mg/kg/day s.c., vs vehicle) is given as about 20.
